*1 amine or outer side, *2 acyl side, *3 side chain or, on linkers, in order; H or OH if unused. Where a SMILES comes first, the peptide text is derived from it. [ ]: non-standard residue; d: D form. The star is where a group is joined. X1 = O=C(Cc1ccc(N[*:1])cc1)[*:2]; NH(2-Me-phenyl) = Cc1ccccc1N*; CO = O=C([*:1])[*:2]
Experiments:
[1] = design: method as in PMID 17523052, PMID 11682211; conditions: heparinized blood, plasma and rat liver, lung and intestinal homogenates; cited from earlier work
[2] = Enzymatic stability in mouse serum; format: in vitro ADME; conditions: 37 °C, HPLC; for amount of intact peptide: after 3 h
Description: Incubations were carried out at 37 °C. Aliquots of 20 µL were sampled over 180 min from the mixtures and the samples were diluted with 90 µL of glacial ACN for precipitating proteins. The mixtures were diluted with 90 µL of 0.5% AcOH and centrifuged (13,000× g, 15 min). The supernatants were collected and the amount of intact peptides was determined by RP HPLC. The experiments were performed in triplicate and repeated three times.

[3] = design: method as in PMID 30051467; conditions: incubation in mouse serum; cited from earlier work
[4] = test system: isolated α4β1 integrin; design: method as in PMID 30051467; conditions: read-out: IC50, affinity for the isolated α4β1 integrin; cited from earlier work
[5] = test system: α4β1 integrin; design: method as in PMID 30051467; conditions: VCAM-1; read-out: IC50, adhesion of α4β1 integrin-expressing cells to VCAM-1; cited from earlier work
[6] = target: T1, α4β1 integrin (Homo sapiens, UniProt P05556+P13612); test: Inhibition of α4β1 integrin-mediated Jurkat cell adhesion to FN; format: cell-based; conditions: for IC50: Jurkat cell adhesion to plates coated with FN (10 μg/mL), mean ± SD, three experiments in quadruplicate; for ability to modulate α4β1 integrin-mediated cell adhesion (in words): Jurkat cell adhesion to FN
T1 construct: Jurkat E6.1 cells (expressing α4β1) were maintained as a stationary suspension culture; host or cells: Jurkat E6.1
Description: All cell lines were purchased from the ATCC (Rockville, MD, USA). Jurkat E6.1 cells (expressing α4β1) were maintained as a stationary suspension culture in RPMI-1640 (Life Technologies, Carlsbad, CA, USA) supplemented with 2 mM glutamine and 10% FBS (fetal bovine serum). HEK293 cells were routinely cultured in EMEM (Lonza, Basel, Switzerland) enriched with 10% FBS, L-glutamine and nonessential amino acids. Cells were kept at 37 °C under a 5% CO2 humidified atmosphere.
The adhesion assays were performed as previously described. Briefly, black 96-well plates (Corning Costar, Celbio, Milan, Italy) were coated with FN (10 μg/mL). Cells were counted, stained with CellTracker green CMFDA (12.5 μM, 30 min at 37 °C, Life Technologies), and after three washes with 1% BSA (bovine serum albumin) in HBSS (Life Technologies) were preincubated with increasing concentrations of the new peptide ligands (10^−10–10^−4 M) or with the vehicle (methanol) for 30 min at 37 °C. Afterwards, cells were plated (500,000/well) on coated wells and incubated for 30 min at 37 °C. After three washes, adhered cells were lysed with 0.5% Triton X-100 in PBS (30 min at 4 °C) and fluorescence was measured (Ex485 nm/Em535 nm) in an EnSpire Multimode Plate Reader (PerkinElmer, Waltham, MA, USA).
The number of adherent cells was obtained by comparison with a standard curve prepared in the same plate using diverse concentrations of cells. Experiments were carried out in quadruplicate and repeated at least three times. Data analysis and IC50 values were calculated using GraphPad Prism 6.0 (GraphPad Software, San Diego, CA, USA).

T1 sequence (P13612 34-1032): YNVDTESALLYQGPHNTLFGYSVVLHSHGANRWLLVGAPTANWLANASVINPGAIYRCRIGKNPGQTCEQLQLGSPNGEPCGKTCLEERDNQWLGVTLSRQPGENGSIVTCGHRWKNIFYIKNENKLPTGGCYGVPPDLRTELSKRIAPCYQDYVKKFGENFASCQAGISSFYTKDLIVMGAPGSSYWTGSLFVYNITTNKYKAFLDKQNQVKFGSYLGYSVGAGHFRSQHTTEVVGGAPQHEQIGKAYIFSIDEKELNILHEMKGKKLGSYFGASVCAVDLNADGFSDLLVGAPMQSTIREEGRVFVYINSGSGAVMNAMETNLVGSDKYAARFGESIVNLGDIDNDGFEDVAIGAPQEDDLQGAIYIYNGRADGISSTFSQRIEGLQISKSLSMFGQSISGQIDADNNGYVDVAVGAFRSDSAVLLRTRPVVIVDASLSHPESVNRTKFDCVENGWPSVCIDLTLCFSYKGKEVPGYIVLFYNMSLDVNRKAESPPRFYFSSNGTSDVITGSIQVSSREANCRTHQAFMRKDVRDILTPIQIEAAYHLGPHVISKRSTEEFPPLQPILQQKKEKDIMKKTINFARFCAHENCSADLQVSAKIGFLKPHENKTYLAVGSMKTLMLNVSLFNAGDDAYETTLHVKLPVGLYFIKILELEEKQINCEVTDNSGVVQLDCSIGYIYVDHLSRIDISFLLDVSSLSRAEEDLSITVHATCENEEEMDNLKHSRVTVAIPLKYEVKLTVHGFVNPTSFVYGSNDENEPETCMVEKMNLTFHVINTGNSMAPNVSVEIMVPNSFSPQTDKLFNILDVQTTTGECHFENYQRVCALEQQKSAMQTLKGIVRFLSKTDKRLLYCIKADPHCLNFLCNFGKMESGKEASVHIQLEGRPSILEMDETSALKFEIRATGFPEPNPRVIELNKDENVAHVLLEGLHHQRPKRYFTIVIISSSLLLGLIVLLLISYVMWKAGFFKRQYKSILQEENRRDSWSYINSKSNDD
T1 sequence (P05556 21-798): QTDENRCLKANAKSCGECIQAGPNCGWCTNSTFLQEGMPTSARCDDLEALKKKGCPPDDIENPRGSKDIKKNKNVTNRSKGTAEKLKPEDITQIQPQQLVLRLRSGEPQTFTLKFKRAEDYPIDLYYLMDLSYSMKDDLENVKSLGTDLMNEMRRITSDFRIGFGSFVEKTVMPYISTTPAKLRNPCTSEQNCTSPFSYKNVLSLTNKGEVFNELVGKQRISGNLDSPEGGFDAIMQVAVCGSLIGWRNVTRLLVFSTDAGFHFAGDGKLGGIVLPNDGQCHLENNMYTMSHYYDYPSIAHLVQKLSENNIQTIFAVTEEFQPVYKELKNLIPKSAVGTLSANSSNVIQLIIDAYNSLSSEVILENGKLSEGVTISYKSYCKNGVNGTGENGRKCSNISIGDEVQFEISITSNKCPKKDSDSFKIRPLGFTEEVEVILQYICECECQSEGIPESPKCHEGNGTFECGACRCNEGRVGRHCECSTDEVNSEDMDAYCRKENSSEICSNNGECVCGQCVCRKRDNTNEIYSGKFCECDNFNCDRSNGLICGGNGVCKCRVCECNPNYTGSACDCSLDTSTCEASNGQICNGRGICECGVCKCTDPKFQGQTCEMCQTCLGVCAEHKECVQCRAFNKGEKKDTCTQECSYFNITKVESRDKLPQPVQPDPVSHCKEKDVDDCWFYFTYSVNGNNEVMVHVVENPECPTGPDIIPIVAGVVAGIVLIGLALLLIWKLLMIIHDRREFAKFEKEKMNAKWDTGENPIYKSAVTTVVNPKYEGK

Row | Structure (SMILES) | IC50 [6] | ability to modulate α4β1 integrin-mediated cell adhesion (in words) [6] | other results
1 | Cc1ccccc1NC(=O)Nc1ccc(CC(=O)N[C@@H](CC(C)C)C(=O)N[C@@H](CC(=O)O)C(=O)N[C@H](C(=O)N2CCC[C@H]2C(=O)O)C(C)C)cc1 [BIO1211, MPUPA-Leu-Asp-Val-Pro-OH, reference compound] ({NH(2-Me-phenyl)-CO}-[X1]LDVP-OH) |  |  | stability in physiological conditions (in words) [1]: poor stability; initial amount still present ([2]; after 1 h): about 10%
2 | Cc1ccccc1NC(=O)Nc1ccc(CC(=O)N2CC[C@H](C(=O)NCC(=O)O)C2)cc1 [Compound 6] |  |  | enzymatic stability (in words) [3]: good enzymatic stability; IC50 [4]: 8.3 nM; IC50 [5]: 5.04 nM
3 | Cc1ccccc1NC(=O)Nc1ccc(CC(=O)N[C@@H](C)CC(=O)NCC(=O)O)cc1 [Compound 7, MPUPA-β^3-homoAla-Gly-OH] | 4060 ± 780 nM |  | 
4 | Cc1ccccc1NC(=O)Nc1ccc(CC(=O)N[C@H](C)CC(=O)NCC(=O)O)cc1 [Compound 8, MPUPA-β^3-homoAla-Gly-OH] | > 5000 nM |  | 
5 | Cc1ccccc1NC(=O)Nc1ccc(CC(=O)NC[C@H](C)C(=O)NCC(=O)O)cc1 [Compound 9, MPUPA-β^2-homoAla-Gly-OH] | > 5000 nM | not able to modulate α4β1 integrin-mediated cell adhesion to a significant extent | 
6 | Cc1ccccc1NC(=O)Nc1ccc(CC(=O)NC[C@@H](C)C(=O)NCC(=O)O)cc1 [Compound 10, MPUPA-β^2-homoAla-Gly-OH] | > 5000 nM | not able to modulate α4β1 integrin-mediated cell adhesion to a significant extent | 
7 | CCCNC(=O)[C@H](CC(=O)NCC(=O)O)NC(=O)Cc1ccc(NC(=O)Nc2ccccc2C)cc1 [Compound 11, MPUPA-isoAsp(NHPr)-Gly-OH] | > 5000 nM |  | 
8 | CCCNC(=O)[C@@H](CC(=O)NCC(=O)O)NC(=O)Cc1ccc(NC(=O)Nc2ccccc2C)cc1 [Compound 12, MPUPA-(R)-isoAsp(NHPr)-Gly-OH] | 9.8 ± 2.1 nM |  | amount of intact peptide [2]: around 80%
9 | CC(=O)N[C@@H](CNC(=O)Cc1ccc(NC(=O)Nc2ccccc2C)cc1)C(=O)NCC(=O)O [Compound 13, MPUPA-(S)-Dap(Ac)-Gly-OH] | 236 ± 47 nM | submicromolar range | amount of intact peptide [2]: ~91%
10 | CC(=O)N[C@H](CNC(=O)Cc1ccc(NC(=O)Nc2ccccc2C)cc1)C(=O)NCC(=O)O [Compound 14, MPUPA-Dap(Ac)-Gly-OH] | > 5000 nM | inactive | 

Source: paper PMC8615975, “Design of α/β-Hybrid Peptide Ligands of α4β1 Integrin Equipped with a Linkable Side Chain for Chemoselective Biofunctionalization of Microstructured Materials” (Biomedicines, 2021)
